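Where inhibition never reached the appropriate level, the endpoint shown equals the highest concentration tested. Otherwise, values were interpolated linearly from a five-concentration, 48-hour dose response in 96-well plates. GI50: concentration for 50% inhibition of growth.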 Active and inactive are the calls of the source. Cut-off read from the data, not from the text of the source: active = GI50 up to about 1.1 µM and inactive = higher.
Tests used:
Test in all cases: inhibition of tumour cell growth, NCI panel, 48 h
HCC 2998 = test system: HCC 2998
786-0 = test system: 786-0
COLO 205 = test system: COLO 205
Malme-3M = test system: Malme-3M
OVCAR-3 = test system: OVCAR-3
A549 = test system: A549
SK-MEL-28 = test system: SK-MEL-28
SR = test system: SR
SF-539 = test system: SF-539
CCRF-CEM = test system: CCRF-CEM
MOLT-4 = test system: MOLT-4
OVCAR-8 = test system: OVCAR-8
SK-MEL-2 = test system: SK-MEL-2
OVCAR-5 = test system: OVCAR-5
LOX IMVI = test system: LOX IMVI
U-251 = test system: U-251

Measured: GI50

Cc1ccc(S(=O)(=O)NC(=O)C2S(=O)(=O)OCCOS2(=O)=O)cc1
inactive: HCC 2998 > 100 µM | 786-0 > 100 µM | COLO 205 > 100 µM | Malme-3M > 100 µM | OVCAR-3 > 100 µM | A549 > 100 µM | SK-MEL-28 > 100 µM | SR > 100 µM | SF-539 > 100 µM | CCRF-CEM > 100 µM | MOLT-4 > 10 µM | OVCAR-8 > 100 µM | SK-MEL-2 > 100 µM

CSc1nc(NC2OCC(OC(C)=O)C(OC(C)=O)C2OC(C)=O)c(/N=C\C=N\c2c(NC3OCC(OC(C)=O)C(OC(C)=O)C3OC(C)=O)nc(SC)n(C)c2=O)c(=O)n1C (centres undefined)
inactive: HCC 2998 > 100 µM | 786-0 > 100 µM | COLO 205 > 100 µM | Malme-3M > 100 µM | OVCAR-3 > 100 µM | OVCAR-5 > 100 µM | A549 > 100 µM | SK-MEL-28 > 100 µM | LOX IMVI > 100 µM | SR > 100 µM | SF-539 > 100 µM | U-251 > 100 µM | OVCAR-8 > 100 µM | SK-MEL-2 > 100 µM

CCOC(=O)c1[nH]c(COC(C)=O)c2c1CCCCCCCCCC2
inactive: HCC 2998 > 100 µM | 786-0 > 100 µM | COLO 205 > 100 µM | Malme-3M > 100 µM | OVCAR-3 > 100 µM | OVCAR-5 > 100 µM | A549 > 100 µM | LOX IMVI > 100 µM | SR > 100 µM | SF-539 > 100 µM | CCRF-CEM > 100 µM | U-251 > 100 µM | MOLT-4 > 100 µM | OVCAR-8 > 100 µM | SK-MEL-2 > 100 µM

OCC[N+]12CCCN1CCC2
inactive: HCC 2998 > 100 µM | 786-0 > 100 µM | COLO 205 > 100 µM | Malme-3M > 100 µM | OVCAR-3 > 100 µM | OVCAR-5 > 100 µM | A549 > 100 µM | SK-MEL-28 > 100 µM | LOX IMVI > 100 µM | SR > 100 µM | SF-539 > 100 µM | CCRF-CEM > 100 µM | U-251 > 100 µM | MOLT-4 > 100 µM | OVCAR-8 > 100 µM | SK-MEL-2 > 100 µM

COc1cccc(OC)c1/C=N\N1C(=O)c2ccccc2C1=O
inactive: HCC 2998 29.5 µM | 786-0 31.3 µM | Malme-3M 60 µM | OVCAR-3 19.9 µM | OVCAR-5 > 100 µM | A549 > 100 µM | SK-MEL-28 77.6 µM | LOX IMVI 58.5 µM | SR 32.8 µM | SF-539 24.3 µM | CCRF-CEM 33.6 µM | MOLT-4 40.6 µM | OVCAR-8 29.6 µM | SK-MEL-2 60.8 µM

CCCCCCCC(=O)OC(CBr)COC(=O)C(C)(C)C (centres undefined)
inactive: HCC 2998 > 100 µM | 786-0 > 100 µM | COLO 205 > 100 µM | Malme-3M > 100 µM | OVCAR-3 > 68.2 µM | OVCAR-5 > 100 µM | A549 > 100 µM | SK-MEL-28 > 100 µM | LOX IMVI > 63.2 µM | SR 22.1 µM | SF-539 > 10 µM | CCRF-CEM 33 µM | U-251 > 100 µM | MOLT-4 28.9 µM | OVCAR-8 > 100 µM | SK-MEL-2 > 100 µM

C#CCN(N=O)C(=O)NCCCC(NC(C)=O)C(=O)NCc1ccccc1 (centres undefined)
inactive: HCC 2998 > 100 µM | 786-0 > 100 µM | COLO 205 66.4 µM | Malme-3M > 100 µM | OVCAR-3 > 100 µM | OVCAR-5 > 100 µM | A549 > 100 µM | SK-MEL-28 > 100 µM | LOX IMVI 82.2 µM | SR 6.3 µM | SF-539 96.2 µM | CCRF-CEM 11.3 µM | U-251 > 100 µM | MOLT-4 15.3 µM | OVCAR-8 > 100 µM

O=C1C=C(Br)C(=O)C(Br)=C1
inactive: HCC 2998 74 µM | 786-0 > 100 µM | COLO 205 > 61.4 µM | Malme-3M > 100 µM | OVCAR-3 > 62.2 µM | OVCAR-5 > 100 µM | A549 > 100 µM | SK-MEL-28 > 100 µM | LOX IMVI > 31.6 µM | SR 31.8 µM | SF-539 > 100 µM | CCRF-CEM > 50.1 µM | U-251 > 100 µM | MOLT-4 33.7 µM | OVCAR-8 > 100 µM | SK-MEL-2 > 100 µM

CC(C)C(Sc1nc(-c2ccccc2)c(-c2ccccc2)[nH]1)c1n[nH]c(=S)n1-c1ccccc1 (centres undefined)
inactive: HCC 2998 28.4 µM | 786-0 30.8 µM | COLO 205 23.9 µM | Malme-3M 21.2 µM | OVCAR-3 19.6 µM | OVCAR-5 24.7 µM | A549 33.7 µM | SK-MEL-28 29.9 µM | LOX IMVI 17.5 µM | SR 32.2 µM | SF-539 22.4 µM | CCRF-CEM 23.9 µM | U-251 22.9 µM | MOLT-4 18 µM | OVCAR-8 34.5 µM | SK-MEL-2 20.4 µM

COc1cc(/C=C\c2ccccc2)cc(OC)c1OC
inactive: HCC 2998 11.8 µM | 786-0 5.08 µM | COLO 205 3.08 µM | Malme-3M 2.95 µM | OVCAR-3 2.29 µM | OVCAR-5 10.3 µM | A549 5.28 µM | SK-MEL-28 6.28 µM | LOX IMVI 4.6 µM | SR 3.71 µM | SF-539 2.56 µM | CCRF-CEM 2.99 µM | U-251 4.15 µM | MOLT-4 3.7 µM | OVCAR-8 3.69 µM | SK-MEL-2 4.07 µM

C=CC[P@@]1(=O)O[C@H](c2ccccc2)C(C)N1C(C)C (some centres undefined)
inactive: HCC 2998 > 100 µM | 786-0 > 100 µM | Malme-3M > 100 µM | OVCAR-3 > 100 µM | OVCAR-5 > 100 µM | A549 > 100 µM | SK-MEL-28 > 100 µM | LOX IMVI > 100 µM | SR > 100 µM | SF-539 > 100 µM | CCRF-CEM > 100 µM | U-251 > 100 µM | MOLT-4 > 100 µM | OVCAR-8 > 100 µM

Cc1ccc(C(=O)O/N=C2/CCC/C2=C\c2ccccc2)cc1
inactive: HCC 2998 > 100 µM | 786-0 > 100 µM | COLO 205 > 100 µM | Malme-3M > 100 µM | OVCAR-3 > 100 µM | OVCAR-5 > 100 µM | A549 > 100 µM | SK-MEL-28 > 100 µM | LOX IMVI > 100 µM | SR > 100 µM | SF-539 > 100 µM | CCRF-CEM > 100 µM | U-251 > 100 µM | MOLT-4 > 100 µM | OVCAR-8 > 100 µM | SK-MEL-2 > 100 µM

COc1cc2c(cc1C1=NC(C)(C)CO1)OCO2
inactive: 786-0 > 100 µM | COLO 205 > 100 µM | Malme-3M > 100 µM | OVCAR-3 > 100 µM | A549 > 100 µM | SK-MEL-28 > 100 µM | SR > 100 µM | SF-539 > 100 µM | CCRF-CEM > 100 µM | U-251 > 100 µM | MOLT-4 > 100 µM | OVCAR-8 > 100 µM | SK-MEL-2 > 100 µM

CC(c1ccc(Br)cc1)C(C(=O)O)C(=O)O (centres undefined)
inactive: HCC 2998 > 100 µM | 786-0 > 100 µM | COLO 205 > 100 µM | Malme-3M > 100 µM | OVCAR-3 > 100 µM | OVCAR-5 > 100 µM | A549 > 100 µM | SK-MEL-28 > 100 µM | LOX IMVI > 100 µM | SR > 100 µM | CCRF-CEM > 100 µM | U-251 > 100 µM | MOLT-4 > 100 µM | OVCAR-8 > 100 µM | SK-MEL-2 > 100 µM

O=S(=O)(O)c1ccc(/N=N/c2nc(C(F)(F)F)c(C(F)(F)F)[nH]2)cc1
inactive: 786-0 > 100 µM | COLO 205 74.8 µM | Malme-3M 29.2 µM | OVCAR-3 33 µM | OVCAR-5 18.1 µM | A549 61.8 µM | SK-MEL-28 19.2 µM | LOX IMVI 15.8 µM | SR 21.2 µM | SF-539 29.6 µM | CCRF-CEM 45.4 µM | U-251 41.9 µM | MOLT-4 24.2 µM | OVCAR-8 29.4 µM | SK-MEL-2 30.3 µM

COc1ccc(N2C(=O)C3c4[nH]c5ccccc5c4C4CCCCCCCCCCC4C3C2=O)cc1 (centres undefined)
inactive: HCC 2998 > 100 µM | 786-0 3.65 µM | COLO 205 14.7 µM | Malme-3M 17.1 µM | OVCAR-3 9.95 µM | OVCAR-5 > 37.1 µM | A549 4.84 µM | SK-MEL-28 11.9 µM | LOX IMVI 11.1 µM | SR 10.8 µM | SF-539 11 µM | CCRF-CEM 9.27 µM | U-251 7.62 µM | MOLT-4 15 µM | OVCAR-8 3.39 µM | SK-MEL-2 > 100 µM

CCCCCCCCCCCCCCCCCC(=O)NCC(COP(=O)(O)O)OCC (centres undefined)
inactive: HCC 2998 > 100 µM | 786-0 30.7 µM | COLO 205 > 100 µM | Malme-3M > 100 µM | OVCAR-3 > 100 µM | A549 31.1 µM | SK-MEL-28 > 100 µM | SR > 100 µM | SF-539 43.6 µM | CCRF-CEM > 100 µM | MOLT-4 > 100 µM | OVCAR-8 36.6 µM | SK-MEL-2 38.1 µM

CN1/C(=C/C(=O)c2ccc(Cl)cc2)Nc2ccccc21
inactive: HCC 2998 56 µM | 786-0 65.6 µM | COLO 205 38 µM | Malme-3M > 100 µM | OVCAR-3 47.1 µM | OVCAR-5 18.9 µM | A549 25.9 µM | SK-MEL-28 99.1 µM | LOX IMVI 39.3 µM | SR 32.2 µM | SF-539 58.7 µM | CCRF-CEM 34.8 µM | U-251 47.3 µM | MOLT-4 22.6 µM | OVCAR-8 83.9 µM | SK-MEL-2 > 100 µM

Reference: ChEMBL document CHEMBL1201862, “PubChem BioAssay data set” (2004)
